Results taken from PMC6333907, “Oligopeptide Signaling through TbGPR89 Drives Trypanosome Quorum Sensing” (Cell, 2019).

Biological target: T1, YjdL (Escherichia coli, UniProt P39276)
T1 construct: gene dtpC; pET28a-YjdL, His-tag vector, overexpressed in whole E. coli BL21-CodonPlus (DE3)-RIPL cells
T1 sequence (P39276 1-485): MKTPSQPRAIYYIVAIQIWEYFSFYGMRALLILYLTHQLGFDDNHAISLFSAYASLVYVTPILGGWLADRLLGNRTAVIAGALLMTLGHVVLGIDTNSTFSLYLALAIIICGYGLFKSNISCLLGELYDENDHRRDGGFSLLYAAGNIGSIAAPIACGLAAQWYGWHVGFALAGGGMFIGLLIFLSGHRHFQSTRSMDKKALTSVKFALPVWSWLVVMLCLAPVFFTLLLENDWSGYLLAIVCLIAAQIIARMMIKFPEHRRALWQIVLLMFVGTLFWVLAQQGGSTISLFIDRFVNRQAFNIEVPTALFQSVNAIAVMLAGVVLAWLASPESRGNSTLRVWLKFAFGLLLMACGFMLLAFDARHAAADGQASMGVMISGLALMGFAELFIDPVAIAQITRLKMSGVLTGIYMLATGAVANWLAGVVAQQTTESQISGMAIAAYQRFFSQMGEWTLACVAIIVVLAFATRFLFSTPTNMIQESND
Experiment: fluorescent dipeptide uptake in E. coli expressing the protein
Assay type: cell-based
Conditions: pH 6.5, 37 °C, 15-20 min; printed final 500 μM (1.5 μl of 20 mM in 100 μl); labelled compound

In the case of `Cc1c(CC(=O)NCCCC[C@H](NC(=O)CCN)C(=O)O)c(=O)oc2cc(N)ccc12` [β-Ala-Lys-AMCA], the “fluorescent dipeptide uptake in E. coli expressing the protein” value was “Relative uptake of fluorescent dipeptide β-ALA-Lys-AMCA in E. coli induced (+IPTG)”.
